Experimental data as given in article PMC4728560 (Scientific Reports, 2016).
Each block holds one molecule with its values, some of them ahead of it.

Legend:
Bcl-xL [1] = test: In cellulo BRET between Luciferase-fused TCTP and YFP-fused Bcl-xL; assay type: cell-based; settings: MCF-7 cells; 16 h treatment
Description: See Supplementary Information for full details.
Twenty-four hours later, cells
Protein expression and purification

Bcl-xL [2] = molecular target: T1, Bcl-xL (Homo sapiens, UniProt Q07817, DEL27-82); test: Heterocomplex formation with Bcl-xL (native MS, SEC-MALS, gel filtration); assay type: binding; settings: native MS: Bcl-xL(Δ27-81ΔCT), equimolar 100 μM, 30 °C, checked at 5 μM (for TCTP-R21A)
T1 construct: one containing the fragment 1-26, and the other the fragment 81-209; 6His (N, cleaved yes); made in house; host or cells: Escherichia coli BL21 (DE3) pRARE2
Description: When not specified, proteins tested for binding experiments were mixed at 100 μM, dialyzed against 10 mM CHES pH 9, 50 mM NaCl, 1 mM DTT or TCEP, depending on the analysis, and heated overnight at 30 °C.
For binding experiments, 100 to 200PL of protein mixture were loaded on a size exclusion chromatography (S200, GE Healthcare) column, while elution profiles were measured by UV absorption at 280 nm.
SEC-MALS experiments were performed on a multi-angle light scattering detector (miniDAWN TREOS, Wyatt Technologies) coupled in-line with SEC and an interferometric refractometer (Optilab T-rEX, Wyatt Technologies). See Supplementary Information for full details.
Prior to any mass spectrometry experiment, protein buffer was exchanged twice against a 50 mM ammonium acetate (NH4Ac) solution at pH 9.0 using microcentrifuge gel filtration columns (Zeba 0.5 ml, Thermo Scientific, Rockford, IL). Protein concentration was determined spectrophotometrically. […]
Supplementary Table 1. Measured molecular weights in denaturing conditions Sample Theoretical molecular Measured molecular Associated mass (Da) mass (Da) species […]
Gel filtration. For binding experiments, 100 to 200PL of protein mixture were loaded on a size exclusion chromatography (S200, GE Healthcare) column, while elution profiles were measured by UV absorption at 280nm. […]

Bcl-xL [3] = molecular target: T1, Bcl-xL; test: Isothermal Titration Calorimetry, peptides and Bcl-xL; assay type: binding; settings: ITC, 30 °C, 50 mM ammonium bicarbonate pH 9, TCTP-BH3-R21A 1.26 mM (Fig. 1B)
Description: In red, the conserved hydrophobic residues of the BH3 domain (named h1 (P1), h2 (P2), h3 (P3) and h4 (P4)). In green, the GD signature of BH3 domains. In blue, the conserved charged residues. […] Each experiment was carried out at 30 °C in 50 mM ammonium bicarbonate pH 9.
Titrations were done by isothermal titration calorimetry (ITC) assays using an ITC200 calorimeter from GE-Microcal. See Supplementary Information for full details. […]
hybrid-FLAG peptides, rabbit anti-FLAG (Sigma) and anti-rabbit-FITC (Abcam) were used.
Isothermal Titration Calorimetry experiments
Titrations were done by isothermal titration calorimetry (ITC) assays using an ITC200 calorimeter from GE-Microcal. Bcl-xL was used at 0.065 mM in 50mM bicarbonate ammonium […]
pH 9. […] Titrations were carried out at 30°C. Data were analyzed using Microcal Origin software provided by the ITC manufacturer (GE-Microcal).
High-throughput crystallization screening was performed using a Mosquito liquid transfer robot (TTP Labtech) and the sitting-drop vapor diffusion method. Crystals were obtained at 20°C by mixing 0.2μL of reservoir solution (100mM Pipes pH 7, 1.5M Tris-sodium citrate) with 0.2μL of […]
ammonium bicarbonate pH 9.3 and by equilibrating the mixture against 40μl of reservoir

[4] = tested on: Bax mediated cytochrome c release, Bcl-xL; test: Cytochrome c release from purified mitochondria by tBid and Bax in the presence of Bcl-xL; assay type: biochemical; settings: mouse liver mitochondria; 5 nM tBid, 50 nM Bax, 300 nM Bcl-xL; 15 min, 30 °C; Western blot
Description: (A–E) in vitro reconstitution assay on liposome permeabilization. […] The treated Bcl-xL was then added to reactions containing ANTS-DPX liposomes, 100 nM Bax and 20 nM of either cBid (A,B) or cBidmt1(C,D) at pH 7. Liposome permeabilization was quantified by fluorescence after 5h incubation at 37 °C where 100% release was defined as the fluorescence change due to lipid solubilization with 1% Triton X-100. […] Error bars, std. dev. n = 3. To compare between the TCTP treated groups and the Control group statistically, two-way ANOVA test was performed for (A–D) and one-way ANOVA test was performed for (E). […] Colored asterisks above each data point indicate the statistical significance (*p < 0.05; **p < 0.01, no asterisks if p ≥ 0.05). A complete statistical analysis is provided in Supplementary Table 2–4. […] Cyto c extra-mito: in the supernatant, analysed by Western blot. […]
to highlight the pre-incubation), pH 9, 30 C° before being added to the mitochondria at their final concentrations. […] Cytochrome c was detected in the mitochondrial fraction (Cyto c intra-mito) or in the supernatant (Cyto c extra-mito) by Western blot analysis. […]
Cytochrome c release assay. […] Mitochondrial pellets and the corresponding supernatant fractions were subjected to SDS-polyacrylamide gel electrophoresis and analyzed by Western blotting for cytochrome c.

[5] = tested on: thymocytes from TCTP^+/− mice; test: Complementation (viability) of γ-irradiated TCTP+/− thymocytes; assay type: cell-based, mouse; settings: γ-irradiation 2.5 Gy, overnight culture, 0 to 1000 nM
Description: Figure 4 Molecular/functional analysis of the h1 (P1) subregion of BH3-TCTP. […]
Peptides used for in vitro assays:
WT-TCTP (11-31): […]
R21A-TCTP (11-31): […]
Hybrid Bax/TCTP: […]
Peptides used for in vivo assays:
WT-TCTP (1-31) : […]
Hybrid Bax-TCTP: […]
TCTP-FLAG peptides used for in vivo assays:
WT-TCTP (1-31)-FLAG : […] DYKDDDDK-OH
TCTP-Bax-TCTP-FLAG: […]-OH […]
subdomain in the BH3 motif is underlined. Peptides were purchased from Smartox […]
Complementation and transduction experiments
In order to complement the haploinsufficient TCTP+/- mice with exogenous TCTP, we took advantage of the fact that the first N-terminal fragment of TCTP functions as a Protein Transduction Domain (PTD), enabling TCTP to penetrate into the cell by a mechanism hitherto […]
not well understood23,27-29. […]
of γ irradiation) and cultured, at a concentration of 10^7 cells/ml, overnight in the presence of […]
20) at concentrations ranging from 0-1000nM. For the transduction assays using WT-TCTP- […]
concentrations were 10 microM, 50 microM and 100 microM.
γ-irradiated thymocytes were fixed by adding 500ul of PFA 4% and incubated for 20 min at room temperature. The cells were washed twice with PBS and permeabilized for 10 min with 0.2% triton X-100 in PBS at room temp. The cells were washed twice with PBS. Proteins were blocked in Blocking buffer (1% BSA 0.5% Tween in PBS) 1h at room temperature. The primary antibody was added with blocking buffer and placed in a rotating wheel overnight in a cold room.
Cells were then washed 3 times with PBS and incubated with secondary antibody with blocking buffer 1h at room temperature. The cells were washed 3 times with PBS and suspended in 200 µL PBS and used for Flow Cytometry or further used for immunohistochemistry: 5 µl of each sample were mixed with 5 µl of ProLong® Gold antifade reagent (Life Technologies) and visualized, using the IX73 inverted fluorescence microscope and the cellSens™ Dimension […]
FACS analysis (BD Accuri™ C6 Cytometer (BD Biosciences) of incorporation of exogenous

T1 sequence (Q07817 with tags, fused parts or gaps DEL27-82): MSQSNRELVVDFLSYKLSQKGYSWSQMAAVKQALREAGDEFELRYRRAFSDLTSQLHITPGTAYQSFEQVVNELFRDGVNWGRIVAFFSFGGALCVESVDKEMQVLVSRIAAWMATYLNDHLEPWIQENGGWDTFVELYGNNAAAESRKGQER

- inhibition of BRET signals between TCTP and Bcl-xL (Bcl-xL [1]): significantly inhibited
Molecule: CN(C)CC[C@H](CSc1ccccc1)Nc1ccc(S(=O)(=O)NC(=O)c2ccc(N3CCN(Cc4ccccc4-c4ccc(Cl)cc4)CC3)cc2)cc1[N+](=O)[O-] [ABT-737, reference compound]
- complex formation with Bcl-xL (Bcl-xL [2]): abrogated formation of the TCTP/Bcl-xL complexes

- binding to Bcl-xL (Bcl-xL [3]): does not bind to Bcl-xL
Molecule: DEMFSDIYKIAEIADGLCLEV [TCTP11–31-R21A, R21A mutant of TCTP11–31 peptide]

Molecule: MIIYRDLISHDEMFSDIYKI [TCTP1–20, truncated TCTP peptide]
- potentiation of Bcl-xL (cytochrome c release) [4]: do not potentiate Bcl-xL

Molecule: MIIYRDLISHDEMKKLSECIREIADGLCLEV [hybrid mutant]
- rescue of TCTP+/− haploinsufficient phenotype / anti-apoptotic function [5]: not able anymore to rescue the haploinsufficient phenotype
- rescue of TCTP+/− haploinsufficient phenotype / anti-apoptotic function ([5]; listed as hybrid Bax(h1)-TCTP): completely abrogated its anti-apoptotic function

Molecule: MIIYRDLISHDEMFSDIYKIREIADGLCLEV [TCTP1–31]
- rescue of TCTP+/− haploinsufficient phenotype / anti-apoptotic function [5]: rescue completely the TCTP^+/− haploinsufficient phenotype
